Assay [1] relates to CHO-K1 cells transfected with empty pcDNA3.1(+) vector. Briefly: Luminescence control assay, CHO-K1 cells cotransfected with empty pcDNA3.1(+) vector and Gqs5. It counts as cell-based, Chinese hamster. Particulars: empty pcDNA3.1(+) vector and Gqs5, words.
Another assay concerns tube foot preparations. Description: In vitro contraction of tube foot preparations. Also on record: species or system Asterias rubens. Particulars: words, ArBN 10^-9 to 10^-6 M. As to the method: ArBN (EPRRNYNRVFGPTY-NH2), ArBN5-14 (NYNRVFGPTY-NH2), and ArBNP65-81 (EPMPSSLALYIANLSP-NH2), were tested for effects on in vitro cardiac stomach and tube foot preparations from A. rubens. The preparations were dissected as described previously ([43], [59]–[61]), with the organs immersed in ice-cold artificial seawater during dissection. A description of the methods employed for investigation of in vitro effects of ArBN on cardiac stomach and tube foot preparations from A. rubens is included in SI Appendix, SI Methods. […]
Wax was removed from slides using xylene (3 × 10 min) and then slides were immersed in 100% ethanol (2 × 10 min). 0.3% hydrogen peroxide (VWR Chemicals, UK) in methanol was used to quench endogenous peroxidases for 30 min and then an ethanol series (90%, 70%, 50%), distilled water and PBST were used to rehydrate the tissue sections. 5% goat serum (Sigma-Aldrich, UK) made up in PBST was used for blocking for 2 h at room temperature. […]
All the dissected preparations were set up in an aerated organ bath filled with 20 ml artificial seawater maintained at approximately 11°C. Changes in the contractile state of preparations were detected by the transducer, which was linked via a bridge amplifier (FE221 Bridge Amp, ADInstruments Ltd, Oxford, UK) to data acquisition hardware (PowerLab 2/36, ADInstruments Ltd, Oxford, UK). […]

As for “EPMPSSLALYIANLSP-NH2 [ArBNP65-81, C-terminally amidated 16-residue peptide predicted to be derived from residues 65 to 81 of ArBNP]”, in assay [1], the peptide-induced luminescence entry is on record as “did not trigger luminescence”. The “effect on tube foot preparations” value in the assay with tube foot preparations is reported as “neither ArBN5-14 nor ArBNP65-81 had any observable effect”.
For “NYNRVFGPTY-NH2 [ArBN5-14, C-terminally amidated 10-residue peptide corresponding to the C-terminal region of ArBN]” the same measures were “did not trigger luminescence” and “neither ArBN5-14 nor ArBNP65-81 had any observable effect”.

These data come from PMC12002301, “Discovery and functional characterization of a bombesin-type neuropeptide signaling system in an invertebrate” (Proceedings of the National Academy of Sciences of the …, 2025).
